Measured values: patent US6642216B2, “Isoprenoid pathway inhibitors for stimulating bone growth” (ZymoGenetics Corporation, priority 1996, dated 2003)

Columns and labels:
BMP-2 promoter = experiment: ABA assay: BMP-2 promoter-luciferase reporter in 2T3-BMP-2-LUC osteoblast cells; format: cell-based, mouse
[1] = tested on: ICR Swiss white mice calvaria; experiment: In vivo murine calvarial bone growth assay; design: species or system mouse
Experimental: Male ICR Swiss white mice, aged 4-6 weeks and weighing 13-26 gm, are employed, using 4-5 mice per group. The calvarial bone growth assay is performed as described in PCT application WO 95/24211, incorporated by reference. Briefly, the test compound or appropriate control vehicle is injected into the subcutaneous tissue over the right calvaria of normal mice. Typically, the control vehicle is the vehicle in which the compound was solubilized, and is PBS containing 5% DMSO or is PBS containing Tween (2 μl/10 ml). The animals are sacrificed on day 14 and bone growth measured by histomorphometry. Bone samples for quantitation are cleaned from adjacent tissues and fixed in 10% buffered formalin for 24-48 hours, decalcified in 14% EDTA for 1-3 weeks, processed through graded alcohols; and embedded in paraffin wax. Three to five μm sections of the calvaria are prepared, and representative sections are selected for histomorphometric assessment of the effects on bone formation and bone resorption. Sections are measured by using a camera lucida attachment to trace directly the microscopic image onto a digitizing plate. Bone changes are measured on sections cut 200 μm apart, over 4 adjacent 1×1 mm fields on both the injected and noninjected sides of the calvaria. New bone is identified by its characteristic woven structure, and osteoclasts and osteoblasts are identified by their distinctive morphology. Histomorphometry software (OsteoMeasure, Osteometrix, Inc., Atlanta) is used to process digitizer input to determine cell counts and measure areas or perimeters.
The results are reported as a measurement of total bone area (and % increase in area over vehicle control), as shown below.

neonatal mouse calvaria = experiment: Neonatal mouse calvaria assay (in vitro bone formation); format: cell-based; design: Osteoblast Number, % increase over vehicle control / New Bone Area, % increase over vehicle control: concentration or dose not given beside the values
Procedure, shortened: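 Frontal and parietal bones from 4-day-old ICR Swiss mice cultured ex vivo, then 3 μm sections histomorphometrically assessed. New bone area measured in one field (10× objective) in 3 sections per bone, 4 bones per group, expressed as mm^2×10^−3; osteoblasts lining bone counted at 20×, per mm bone surface.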

SMILES: CCC(C)(C)C(=O)O[C@H]1C[C@@H](C)C=C2C=C[C@H](C)[C@H](CC[C@@H]3C[C@@H](O)CC(=O)O3)[C@H]21 [Simvastatin, simvastatin]
- % 59-0008 Response (BMP-2 promoter; Experiment 1, 0.195312 μg/ml): 29.030%
- % 59-0008 Response (BMP-2 promoter; Experiment 1, 0.390625 μg/ml): 38.210%
- % 59-0008 Response (BMP-2 promoter; Experiment 1, 0.78125 μg/ml): 69.600%
- % 59-0008 Response (BMP-2 promoter; Experiment 1, 1.5625 μg/ml): 99.170%
- % 59-0008 Response (BMP-2 promoter; Experiment 1, 3.125 μg/ml): 135.610%
- % 59-0008 Response (BMP-2 promoter; Experiment 1, 6.25 μg/ml): 141.970%
- % 59-0008 Response (BMP-2 promoter; Experiment 1, 12.5 μg/ml): 131.300%
- % 59-0008 Response (BMP-2 promoter; Experiment 1, 25 μg/ml): 148.310%
- % 59-0008 Response (BMP-2 promoter; Experiment 1, 50 μg/ml): −22.950%
- % 59-0008 Response (BMP-2 promoter; Experiment 1, 100 μg/ml): −23.010%
- % 59-0008 Response (BMP-2 promoter; Experiment 1, 200 μg/ml): −22.960%
- % 59-0008 Response (BMP-2 promoter; Experiment 2, 0.465820 μM, 0.195312 μg/ml): 0.310%
- % 59-0008 Response (BMP-2 promoter; Experiment 2, 0.931640 μM, 0.390625 μg/ml): 2.600%
- % 59-0008 Response (BMP-2 promoter; Experiment 2, 1.863281 μM, 0.78125 μg/ml): 6.820%
- % 59-0008 Response (BMP-2 promoter; Experiment 2, 3.726562 μM, 1.5625 μg/ml): 19.670%
- % 59-0008 Response (BMP-2 promoter; Experiment 2, 7.453125 μM, 3.125 μg/ml): 51.660%
- % 59-0008 Response (BMP-2 promoter; Experiment 2, 14.90625 μM, 6.25 μg/ml): 104.640%
- % 59-0008 Response (BMP-2 promoter; Experiment 2, 29.8125 μM, 12.5 μg/ml): 152.290%
- % 59-0008 Response (BMP-2 promoter; Experiment 2, 59.625 μM, 25 μg/ml): 180.640%
- % 59-0008 Response (BMP-2 promoter; Experiment 2, 119.25 μM, 50 μg/ml): 189.430%
- % 59-0008 Response (BMP-2 promoter; Experiment 2, 238.5 μM, 100 μg/ml): 304.100%
- % 59-0008 Response (BMP-2 promoter; Experiment 2, 477 μM, 200 μg/ml): 222.180%
- % increase in total bone area over vehicle control ([1]; 1 mg/kg/day): 2%
- Total Bone Area ([1]; 1 mg/kg/day): 172 μm^2
- % increase in total bone area over vehicle control ([1]; 5 mg/kg/day): 20%
- Total Bone Area ([1]; 5 mg/kg/day): 202 μm^2
- % increase in total bone area over vehicle control ([1]; 10 mg/kg/day): 46%
- Total Bone Area ([1]; 10 mg/kg/day): 245 μm^2
- increase in the number of osteoblasts ([1]; mouse, in vivo): 1.5 fold
- New Bone Area (neonatal mouse calvaria; Experiment 1, 3 days): 8.5 mm^2 × 10^−3
- New Bone Area, % increase over vehicle control (neonatal mouse calvaria; Experiment 1, 3 days): 77%
- Osteoblast Number (neonatal mouse calvaria; Experiment 1, 3 days): 156 Obs/field
- Osteoblast Number, % increase over vehicle control (neonatal mouse calvaria; Experiment 1, 3 days): 63%
- New Bone Area (neonatal mouse calvaria; Experiment 1, 7 days): 17.4 mm^2 × 10^−3
- New Bone Area, % increase over vehicle control (neonatal mouse calvaria; Experiment 1, 7 days): 123%
- Osteoblast Number (neonatal mouse calvaria; Experiment 1, 7 days): 154 Obs/field
- Osteoblast Number, % increase over vehicle control (neonatal mouse calvaria; Experiment 1, 7 days): 68%
- New Bone Area (neonatal mouse calvaria; Experiment 2, 3 days): 15.4 mm^2 × 10^−3
- New Bone Area, % increase over vehicle control (neonatal mouse calvaria; Experiment 2, 3 days): 285%
- Osteoblast Number (neonatal mouse calvaria; Experiment 2, 3 days): 154 Obs/field
- Osteoblast Number, % increase over vehicle control (neonatal mouse calvaria; Experiment 2, 3 days): 70%
- New Bone Area (neonatal mouse calvaria; combination study, IBN (1 μM), 59-0328 0.1 μM alone): 5.1 ± 0.49 mm^2 × 10^−3
- New Bone Area (neonatal mouse calvaria; combination study, IBN (1 μM), 59-0328 0.2 μM alone): 5.23 ± 0.89 mm^2 × 10^−3
- New Bone Area (neonatal mouse calvaria; combination study, IBN (10 μM), 59-0328 0.1 μM alone): 4.25 ± 0.59 mm^2 × 10^−3
- New Bone Area (neonatal mouse calvaria; combination study, IBN (10 μM), 59-0328 0.2 μM alone): 6.83 ± 1.54 mm^2 × 10^−3
